Values quoted from earlier work as cited in PubChem BioAssay AID1259409 (Chemical Carcinogenesis Research Information System (CCRIS), 2018).

Tested on: rodent chemically induced tumor inhibition, incidence and multiplicity
Experiment: CCRIS tumor inhibitor studies
Conditions: Species: MOUSE

C#Cc1ccc2ccccc2c1
tumour outcome (control, treated, inhibition, significance) (Carcinogen: 4-(METHYLNITROSAMINO)-1-(3-PYRIDYL)-1-BUTANONE, 64091-91-4, Dose [Inhibitor]: 0, 5 UMOL IN 0.1 ML CORN OIL ONCE 2 HR PRIOR TO CARCINOGEN DOSE (STUDY DURATION: 16 WK), Route [Inhibitor]: GAVAGE, Strain/Sex: STRAIN-A/FEMALE, Target Tissue: Type of Lesion: LUNG: ADENOMA, Dose [Carcinogen]: 10 UMOL IN 0.1 ML SALINE ONCE, Promoter: NONE USED): 100%, 89%, 11%, not significant | tumour outcome (control, treated, inhibition, significance) (Carcinogen: 7,12-DIMETHYLBENZ[A]ANTHRACENE, 57-97-6, Dose [Inhibitor]: 0, 3300 NMOL IN 0.2 ML ACETONE APPLIED TO BACK ONCE 5 MIN PRIOR TO CARCINOGEN DOSE (STUDY DURATION: 26 WK), Route [Inhibitor]: DERMAL, Strain/Sex: SENCAR/FEMALE, Target Tissue: Type of Lesion: SKIN: PAPILLOMA, Dose [Carcinogen]: 10 NMOL IN 0.2 ML ACETONE APPLIED TO BACK ONCE): 100%, 96%, 4%, not calculated | outcome (Carcinogen: 7,12-DIMETHYLBENZ[A]ANTHRACENE, 57-97-6, Dose [Inhibitor]: 0, 33000 NMOL IN 0.2 ML ACETONE APPLIED TO BACK ONCE 5 MIN PRIOR TO CARCINOGEN D (STUDY DURATION: 26 WK), Route [Inhibitor]: DERMAL, Strain/Sex: SENCAR/FEMALE, Target Tissue: Type of Lesion: SKIN: PAPILLOMA, Dose [Carcinogen]: 10 NMOL IN 0.2 ML ACETONE APPLIED TO BACK ONCE.): 100%, 100%, 0, not calculated | tumour outcome (control, treated, inhibition, significance) (Carcinogen: 7,12-DIMETHYLBENZ[A]ANTHRACENE, 57-97-6, Dose [Inhibitor]: 0, 66000 NMOL IN 0.2 ML ACETONE APPLIED TO BACK ONCE 5 MIN PRIOR TO CARCINOGEN DOSE (STUDY DURATION: 20 WK), Route [Inhibitor]: DERMAL, Strain/Sex: SENCAR/FEMALE, Target Tissue: Type of Lesion: SKIN: PAPILLOMA, Dose [Carcinogen]: 10 NMOL IN 0.2 ML ACETONE APPLIED TO BACK ONCE.): 100%, 100%, 0%, not calculated | outcome (Carcinogen: 7,12-DIMETHYLBENZ[A]ANTHRACENE, 57-97-6, Dose [Inhibitor]: 0, 66000 NMOL IN 0.2 ML ACETONE APPLIED TO BACK ONCE 5 MIN PRIOR TO CARCINOGEN DOSE (STUDY DURATION: 26 WK), Route [Inhibitor]: DERMAL, Strain/Sex: SENCAR/FEMALE, Target Tissue: Type of Lesion: SKIN: PAPILLOMA, Dose [Carcinogen]: 10 NMOL IN 0.2 ML ACETONE APPLIED TO BACK ONCE.): 100%, 100%, 0, not calculated | tumour outcome (control, treated, inhibition, significance) (Carcinogen: 7,12-DIMETHYLBENZ[A]ANTHRACENE, 57-97-6, Dose [Inhibitor]: 0, 132000 NMOL IN 0.2 ML ACETONE APPLIED TO BACK ONCE 5 MIN PRIOR TO CARCINOGEN DOSE (STUDY DURATION: 20 WK), Route [Inhibitor]: DERMAL, Strain/Sex: SENCAR/FEMALE, Target Tissue: Type of Lesion: SKIN: PAPILLOMA, Dose [Carcinogen]: 10 NMOL IN 0.2 ML ACETONE APPLIED TO BACK ONCE.): 100%, 89%, 11%, not calculated | tumour outcome (control, treated, inhibition, significance) (Carcinogen: BENZO[A]PYRENE, 50-32-8, Dose [Inhibitor]: 3300 NMOL IN 0.2 ML ACETONE APPLIED TO BACK ONCE 5 MIN PRIOR TO CARCINOGEN DOSE (STUDY DURATION: 26 WK), Route [Inhibitor]: DERMAL, Strain/Sex: SENCAR/FEMALE, Target Tissue: Type of Lesion: SKIN: PAPILLOMA, Dose [Carcinogen]: 200 NMOL IN 0.2 ML ACETONE APPLIED TO BACK ONCE.): 100%, 95%, 5%, not calculated | tumour outcome (control, treated, inhibition, significance) (Carcinogen: BENZO[A]PYRENE, 50-32-8, Dose [Inhibitor]: 33000 NMOL IN 0.2 ML ACETONE APPLIED TO BACK ONCE 5 MIN PRIOR TO CARCINOGEN DOSE (STUDY DURATION: 26 WK), Route [Inhibitor]: DERMAL, Strain/Sex: SENCAR/FEMALE, Target Tissue: Type of Lesion: SKIN: PAPILLOMA, Dose [Carcinogen]: 200 NMOL IN 0.2 ML ACETONE APPLIED TO BACK ONCE.): 100%, 89%, 11%, not calculated | tumour outcome (control, treated, inhibition, significance) (Carcinogen: BENZO[A]PYRENE, 50-32-8, Dose [Inhibitor]: 66000 NMOL IN 0.2 ML ACETONE APPLIED TO BACK ONCE 5 MIN PRIOR TO CARCINOGEN DOSE (STUDY DURATION: 20 WK), Route [Inhibitor]: DERMAL, Strain/Sex: SENCAR/FEMALE, Target Tissue: Type of Lesion: SKIN: PAPILLOMA, Dose [Carcinogen]: 200 NMOL IN 0.2 ML ACETONE APPLIED TO BACK ONCE.): 75%, 74%, 1%, not calculated | tumour outcome (control, treated, inhibition, significance) (Carcinogen: N-METHYL-N'-NITRO-N-NITROSOGUANIDINE, 70-25-7, Dose [Inhibitor]: 0, 33000 NMOL IN 0.2 ML ACETONE APPLIED TO BACK ONCE 5 MIN PRIOR TO CARCINOGEN DOSE (STUDY DURATION: 20 WK), Route [Inhibitor]: DERMAL, Strain/Sex: SENCAR/FEMALE, Target Tissue: Type of Lesion: SKIN: PAPILLOMA, Dose [Carcinogen]: 2500 NMOL IN 0.2 ML ACETONE APPLIED TO BACK ONCE.): 78%, 85%, -9%, not calculated
